US8404665B2, “In vivo use of glutathione S-transferase activated nitric oxide donors” (University of Utah Research Foundation, priority 2002, dated 2013)
Where two headings read alike, the source gives them in different places.

Tests used:
[1] = tested on: HL-60 cells; test: HL-60 leukemia cell growth (Coulter counter or MTT assay); format: cell-based, human; conditions: for cell growth, % of untreated control cells: HL-60, MTT, three days
Description: Cell Lines and Culture Conditions. HL-60, DLD1, and U937 cells were obtained from ATCC (Rockville, Md.). Meth A cells were from Dr. Wolfram Samlowski (University of Utah, Salt Lake City, Utah). The PPC-1 cell line was provided by Dr. Graeme Bolger (University of Alabama, Birmingham, Ala.). For the cell growth and apoptosis experiments, cells were cultured at a density of 150,000 cells/ml in RPMI-1640 with 10% fetal bovine serum at 37° C. in a 5% CO2 humidified atmosphere. Agents were added at the indicated concentrations 24 h after culture initiation. At the indicated time intervals, cells were harvested and washed twice in phosphate buffered saline (PBS) prior to processing for analysis of growth, differentiation, and apoptosis.
Cell Growth, Differentiation and Apoptosis Assays. The number of viable cells was determined using the MTT assay according to the manufacturer's protocol (Promega, Madison, Wis.) or using a Coulter counter. Briefly, a MTT assay is an analytical technique that uses the dye dimethylthiazolyl-diphenyltetrazolium (MTT) which turns from yellow to brownish-purple as it is reduced in the mitochondria of living cells. The assay is useful in calorimetric quantitation of cell viability and proliferation. In contrast, cell differentiation was evaluated using Wright and Non-Specific Esterase (NSE) staining of cells collected on microscope slides by cytospin as previously described (Magrinat, G. et al. (1992) Blood 80: 1880-1884). Apoptosis was assayed by flow cytometry and by determining DNA fragmentation using agarose gel electrophoresis as previously described (Shami, P. J. et al. (1998) Leukemia 12: 1461-1466). For the flow cytometry assay, we used the propidium iodide staining method of Nicoletti et al. (Nicoletti, I. et al. (1991) J. Immunol. Methods 139: 271-279).
For the initial screen, HL60 cells were cultured in triplicate in RPMI1640/10% FBS under standard conditions. Compounds were added to the cultures at the following concentrations: 0, 0.1, 1, 10, and 100 micromolar (uM). Three days after addition of the compounds cell growth was determined either using a Coulter counter or using the MTT assay.
The antiproliferative effects in the human AML (Acute Myeloid Leukemia) cell lines, HL-60 (myeloid leukemia) and U937 (monoblastic leukemia) cells were treated with JS-K for a period of 3 days, upon which cell growth was evaluated using a Coulter counter (CITY, STATE). JS-K was added to HL-60 cells at 0, 0.25, 0.5, 0.75, and 1.0 μM concentrations. […] Similar results were obtained in U937 cells under similar conditions.

[2] = tested on: HL-60 cells; test: NO generation (nitrate and nitrite) by HL-60 cells in serum-free PBS; format: cell-based, human
Description: Production of NO was then determined by measuring levels of nitrate and nitrite, byproducts of NO oxidation. Serum-free buffer was used to eliminate the confounding effects of nitrates in the serum or medium. When added to HL-60 cells suspended in serum-free phosphate buffered saline (PBS) buffer at a concentration of 10 μM, JS-K appeared to generate NO in a time-dependent fashion with peak levels at 24 hours. […] For this, JS-K was added to HL-60 cells suspended in serum-free PBS at a concentration of 20 μM and nitrate+nitrite levels in the supernatants were determined 24 hours post-addition.

[3] = tested on: HL-60 cells; test: Subcutaneous HL-60 tumor implants in NOD/SCID mice; format: in vivo
Description: To study the in vivo antineoplastic potency of JS-K, NOD/SCID mice were injected in the flanks subcutaneously with HL-60 or PPC-1 cells (2.5×10^6 cells per flank). When subcutaneous tumors were palpable, treatment with JS-K or an equal volume of vehicle (20% dimethyl sulfoxide in PBS) was started using the indicated doses and route. Tumor size was measured daily or every other day using a Vernier caliper. Tumor volume was calculated using the formula: width×length×[(width+length)/2]×0.5236. Fifteen to 20 days after tumor cell implantation, animals were sacrificed by CO2 inhalation and tumors were collected for histochemical analysis.
Histological Analysis of Tumors. After sacrifice, subcutaneous tumors were dissected out, fixed in 10% formaldehyde and imbedded in paraffin. Four-um sections were cut and stained with Hematoxylin and Eosin.
To determine the in vivo therapeutic efficacy of JS-K, NOD/SCID mice were injected subcutaneously with 5×10^6 HL-60 cells in the flanks. When tumors were measurable (4 to 5 days after leukemia cell inoculation), the mice were divided into 2 groups that received either vehicle or JS-K at a dose of 4 μmol/kg administered intravenously 3 times per week. After seventeen days from the leukemia cell inoculation there appeared to be a significant difference in tumor volume between vehicle and JS-K treated animals: tumor volume was 9.51±1.22 and 4.15±1.06 cm^3 in vehicle and JS-K treated animals, respectively.

[4] = tested on: bacterial, viral, fungal or parasitic infection; test: Treatment of bacterial, viral, fungal or parasitic infection in an individual; format: in vivo; conditions: therapeutically effective amount
Description: An individual with a bacterial, viral, fungal or parasitic infection is administered a therapeutically effective amount of JS-K to treat such infection.

[5] = 4 μmol/kg i.v. 3 times per week

CCOC(=O)N1CCN(/[N+]([O-])=N/Oc2ccc([N+](=O)[O-])cc2[N+](=O)[O-])CC1 [JS-K, O^2-(2,4-dinitrophenyl) 1-[(4-ethoxycarbonyl)piperazin-1-yl]diazen-1-ium-1,2-diolate]
IC50 ([1]; HL-60, 3 days, Coulter counter, mean of 3 studies, read-out: IC50, cell growth): 220 nM
cell growth, % of untreated control cells ([1]; 0.75 uM): 28+/−0.79%
cell growth, % of untreated control cells ([1]; 0.75 uM JS-K together with 50 uM C-VAD-FMK): 79+/−2.4%
IC50 ([1]; HL-60, initial screen, at three days, read-out: 50% growth inhibitory concentration (IC50)): 220 nM
JS-K-induced growth inhibition after NAC pretreatment ([1]; HL-60, pretreatment 2-6 h with NAC): prevented the JS-K-induced growth inhibition
JS-K-induced growth inhibition after BSO pretreatment ([1]; HL-60, pretreatment with BSO for 2-6 h): did not appear to prevent the JS-K-induced growth inhibition
JS-K-induced growth inhibition after BSO pretreatment ([1]; HL-60, pretreatment with BSO for 24 h): appeared to enhance the effects
IC50 ([1]; HL-60 assay system, comparison with chemotherapeutic agents, read-out: IC50, growth inhibition): 500 nM
time of peak NO levels (nitrate and nitrite) ([2]; 10 μM, HL-60 cells in serum-free PBS): 24 h
extent of NO release versus cell number ([2]; 20 μM, nitrate+nitrite in supernatants 24 hours post-addition): positively correlated with the cell number
activation of JS-K and NO release by supernatants from HL-60 cells ([2]; cell supernatants only): did not induce activation of JS-K and NO release
leukemia implant growth in vivo [3, 5]: significant delay in leukemia implant growth in vivo
tumor histology (necrosis) at experiment termination [3, 5]: extensive necrosis
tumor volume ([3]; 4 μmol/kg i.v. 3 times per week, seventeen days from inoculation, vehicle 9.51±1.22): 4.15±1.06 cm^3
cell necrosis in tumors (histologic analysis) ([3]; controls ˜10%): more than 50%
reduction in tumor volume ([3]; sixteen days after starting therapy, versus control): more than 50%
average tumor volume ([3]; sixteen days after starting therapy, control 8.34±0.72, P=0.039): 3.13±1.14 cm^3
effect on infection [4]: causes elimination of such infection
